Test system: areas of endothelial damage, vulnerable plaque or angiogenesis in the heart
Assay: Simultaneous imaging of In-111 labeled vitronectin antagonist compound and Tc99m cardiac perfusion agent (Example 67)
Format: in vivo
Conditions: human, 10–40 mCi, approximately 0.5 to 6 hours following injection
Experimental: The compound of Examples 54, 55 or 56 is administered to a human at a level of ˜1–10 mCi of ^111In before, together with, or after the adminstration of a ^99mTc cardiac perfusion imaging agent (e.g. 10–40 mCi of ^99mTc-Sestamibi). […] The simultaneous imaging of the In-111 labeled vitronectin antagonist compound and the Tc99m cardiac perfusion agent is carried out by a method such as that reported by White (White, S A, Mueller, D H, Smith H E, et al. J Nucl Med Tech 1984, 12: 124–125) or Hillel (Hillel P G, Tindale W B, Taylor C J, et al. Nucl Med Conmun 1998, 19, 761–769).

[C-]#[N+]CC(C)(C)OC.[C-]#[N+]CC(C)(C)OC.[C-]#[N+]CC(C)(C)OC.[C-]#[N+]CC(C)(C)OC.[C-]#[N+]CC(C)(C)OC.[C-]#[N+]CC(C)(C)OC.[Tc] [^99mTc-Sestamibi, hexakis methoxyisobutyl isonitrile Technetium(I)]
distribution of the ^99mTc perfusion agent: distributed in the myocardium in relation to regional myocardial blood flow

— patent publication US7179446B2, “Simultaneous imaging of cardiac perfusion and a vitronectin receptor targeted imaging agent” (Bristol-Myers Squibb Pharma Company, priority 2000, dated 2007)
